US6172079A, “5-substituted-3-oxadiazolyl-1,6-naphthyridin-2(1H)-one derivatives” (Dainippon Pharmaceutical Co., Ltd., priority 1997, dated 2001)

Molecular target: benzodiazepine receptor
Assay: Benzodiazepine Receptor Binding Assay
Details: read-out: BZP-receptor Binding IC50; [3H]-diazepam 1.5 nM; rat brain crude synaptosome membrane; 0° C., 20 min

| SMILES | IC50 [nM] |
| --- | --- |
| Cc1nccc2[nH]c(=O)c(-c3noc(C4CC4)n3)cc12 [Example 1, 3-(5-cyclopropyl-1,2,4-oxadiazol-3-yl)-5-methyl-1,6-naphthyridin-2(1H)-one] | 2.28 |
| Cc1cccc(-c2nccc3[nH]c(=O)c(-c4noc(C)n4)cc23)c1 [Example 9] | 1.62 |
| Cc1ccc(-c2nccc3[nH]c(=O)c(-c4noc(C)n4)cc23)cc1 [Example 10] | 8.08 |
| CCc1nc(-c2cc3cnccc3[nH]c2=O)no1 [Example 12] | 7.89 |
| CCCc1nccc2[nH]c(=O)c(-c3noc(CC)n3)cc12 [Example 15] | 6.16 |
| CCCCc1nccc2[nH]c(=O)c(-c3noc(CC)n3)cc12 [Example 19] | 6.37 |
| CCCCCc1nccc2[nH]c(=O)c(-c3noc(CC)n3)cc12 [Example 22] | 3.76 |
| CCc1nc(-c2cc3c(C4CC=CCC4)nccc3[nH]c2=O)no1 (centres unmarked) [Example 25] | 1.84 |
| CCc1nc(-c2cc3c(-c4ccccc4)nccc3[nH]c2=O)no1 [Example 26] | 0.67 |
| CCc1nc(-c2cc3c(-c4cccc(F)c4)nccc3[nH]c2=O)no1 [Example 27] | 0.96 |
| CCc1nc(-c2cc3c(-c4ccc(F)cc4)nccc3[nH]c2=O)no1 [Example 28] | 1.25 |
| CCc1nc(-c2cc3c(-c4cccc(Cl)c4)nccc3[nH]c2=O)no1 [Example 29] | 5.28 |
| CCc1nc(-c2cc3c(-c4cccc(C)c4)nccc3[nH]c2=O)no1 [Example 31] | 1.64 |
| CCc1nc(-c2cc3c(-c4ccc(C)cc4)nccc3[nH]c2=O)no1 [Example 32] | 3.29 |
| CCc1nc(-c2cc3c(-c4ccc(OC)cc4)nccc3[nH]c2=O)no1 [Example 33] | 5.5 |
| CCCc1nc(-c2cc3c(C4CC4)nccc3[nH]c2=O)no1 [Example 37] | 3.91 |
| CCCc1nc(-c2cc3c(-c4cccc(F)c4)nccc3[nH]c2=O)no1 [Example 39] | 2.86 |
| CCCc1nc(-c2cc3c(-c4ccc(F)cc4)nccc3[nH]c2=O)no1 [Example 40] | 7.45 |
| CC(C)c1nc(-c2cc3c(C4CC4)nccc3[nH]c2=O)no1 [Example 44] | 2.62 |
| CC(C)c1nc(-c2cc3c(-c4cccc(F)c4)nccc3[nH]c2=O)no1 [Example 46] | 2.15 |
| CCCc1nccc2[nH]c(=O)c(-c3noc(C4CC4)n3)cc12 [Example 49] | 1.11 |
| O=c1[nH]c2ccnc(C3CC3)c2cc1-c1noc(C2CC2)n1 [Example 51] | 0.79 |

| SMILES | IC50 [nM] |
| --- | --- |
| O=c1[nH]c2ccnc(-c3ccc(F)cc3)c2cc1-c1noc(C2CC2)n1 [Example 54] | 1.21 |
| O=c1[nH]c2ccnc(-c3ccc(Cl)cc3)c2cc1-c1noc(C2CC2)n1 [Example 56] | 2.71 |
| Cc1cccc(-c2nccc3[nH]c(=O)c(-c4noc(C5CC5)n4)cc23)c1 [Example 57] | 1.55 |
| COc1ccc(-c2nccc3[nH]c(=O)c(-c4noc(C5CC5)n4)cc23)cc1 [Example 59] | 1.98 |
| C=C(C)c1nc(-c2cc3c(C4CC4)nccc3[nH]c2=O)no1 [Example 60] | 2.01 |
| C=Cc1nc(-c2cc3c(C4CC4)nccc3[nH]c2=O)no1 [Example 61] | 1.04 |
| CCc1nc(-c2cc3c(-c4ccccc4C)nccc3[nH]c2=O)no1 [Example 97] | 4.64 |
| CCc1nc(-c2cc3c(-c4ccccc4OC)nccc3[nH]c2=O)no1 [Example 98] | 8.56 |
| CCc1nc(-c2cc3c(-c4cccc(OC)c4)nccc3[nH]c2=O)no1 [Example 99] | 1.67 |
| CCc1nc(-c2cc3c(-c4ccc(Cl)s4)nccc3[nH]c2=O)no1 [Example 104] | 5.18 |
| CCCc1nc(-c2cc3c(-c4ccccc4F)nccc3[nH]c2=O)no1 [Example 108] | 2.14 |
| CCCc1nc(-c2cc3c(-c4ccco4)nccc3[nH]c2=O)no1 [Example 109] | 1.75 |
| CCCc1nc(-c2cc3c(-c4cccs4)nccc3[nH]c2=O)no1 [Example 110] | 1.16 |
| CCCc1nc(-c2cc3c(-c4ccsc4)nccc3[nH]c2=O)no1 [Example 111] | 2.06 |
| CC(C)c1nc(-c2cc3c(-c4ccccc4F)nccc3[nH]c2=O)no1 [Example 112] | 2.68 |
| CC(C)c1nc(-c2cc3c(-c4ccco4)nccc3[nH]c2=O)no1 [Example 113] | 2.18 |
| CC(C)c1nc(-c2cc3c(-c4cccs4)nccc3[nH]c2=O)no1 [Example 114] | 1.08 |
| CC(C)c1nc(-c2cc3c(-c4ccsc4)nccc3[nH]c2=O)no1 [Example 115] | 1.52 |
| O=c1[nH]c2ccnc(-c3ccccc3F)c2cc1-c1noc(C2CC2)n1 [Example 116] | 1.17 |
| O=c1[nH]c2ccnc(-c3ccccc3Cl)c2cc1-c1noc(C2CC2)n1 [Example 117] | 1.41 |
| Cc1ccccc1-c1nccc2[nH]c(=O)c(-c3noc(C4CC4)n3)cc12 [Example 118] | 1.28 |
| COc1ccccc1-c1nccc2[nH]c(=O)c(-c3noc(C4CC4)n3)cc12 [Example 119] | 2.53 |

Further lines, results first:

| IC50 [nM] | SMILES |
| --- | --- |
| 1.59 | COc1cccc(-c2nccc3[nH]c(=O)c(-c4noc(C5CC5)n4)cc23)c1 [Example 120] |
| 0.78 | O=c1[nH]c2ccnc(-c3ccco3)c2cc1-c1noc(C2CC2)n1 [Example 121] |
| 0.87 | O=c1[nH]c2ccnc(-c3cccs3)c2cc1-c1noc(C2CC2)n1 [Example 122] |
| 4.01 | CCCCc1nccc2[nH]c(=O)c(-c3nc(CC)no3)cc12 [Example 195] |
| 1.97 | CCc1noc(-c2cc3c(C4CCCCC4)nccc3[nH]c2=O)n1 [Example 197] |
| 1.55 | CCc1noc(-c2cc3c(-c4ccccc4F)nccc3[nH]c2=O)n1 [Example 199] |
| 1.84 | CCc1noc(-c2cc3c(-c4ccc(F)cc4)nccc3[nH]c2=O)n1 [Example 201] |
| 5.51 | CCc1noc(-c2cc3c(-c4ccc(Cl)cc4)nccc3[nH]c2=O)n1 [Example 204] |
| 4.77 | CCc1noc(-c2cc3c(-c4ccccc4C)nccc3[nH]c2=O)n1 [Example 205] |
| 3.42 | CCc1noc(-c2cc3c(-c4ccc(C)cc4)nccc3[nH]c2=O)n1 [Example 207] |
| 4.14 | CCc1noc(-c2cc3c(-c4ccccc4OC)nccc3[nH]c2=O)n1 [Example 208] |
| 1.28 | CCc1noc(-c2cc3c(-c4cccc(OC)c4)nccc3[nH]c2=O)n1 [Example 209] |
| 2.47 | CCCc1noc(-c2cc3c(C4CC4)nccc3[nH]c2=O)n1 [Example 215] |
| 1.17 | CCCc1noc(-c2cc3c(-c4ccccc4)nccc3[nH]c2=O)n1 [Example 216] |
| 1.34 | CCCc1noc(-c2cc3c(-c4ccccc4F)nccc3[nH]c2=O)n1 [Example 217] |
| 2.58 | CCCc1noc(-c2cc3c(-c4cccc(F)c4)nccc3[nH]c2=O)n1 [Example 218] |
| 2.03 | CCCc1noc(-c2cc3c(-c4ccc(F)cc4)nccc3[nH]c2=O)n1 [Example 219] |
| 0.72 | CCCc1noc(-c2cc3c(-c4cccs4)nccc3[nH]c2=O)n1 [Example 221] |
| 1.49 | CCCc1noc(-c2cc3c(-c4ccsc4)nccc3[nH]c2=O)n1 [Example 222] |
| 2.12 | CC(C)c1noc(-c2cc3c(-c4ccccc4)nccc3[nH]c2=O)n1 [Example 225] |
| 1.41 | CC(C)c1noc(-c2cc3c(-c4ccccc4F)nccc3[nH]c2=O)n1 [Example 226] |
